Assays:
miR126 = assay: miRNA126 expression in NL/CB, AML and CML CD34+ cells by Q-RT-PCR; format: cell-based, human; details: 500 nM, 24 hours; primary patients' AML and CML CD34+ cells
Protocol: FIG. 5 is a bar graph showing the expression of miRNA 126 in NL/CB, AML and CML CD34+ cells. Normal, cord blood, AML and CML CD34+ cells were cultured with CpG-scramble RNA (500 nM) and CpG-miR 126 inhibitor-Cy3 (500 nM) for 24 hours. miR126 and RNU44 (control) expression was analyzed by q-RT-PCR. The miR126 expression levels were normalized to RNU44 and calculated by using the comparative 2^−ΔΔct method.
(§1) Normal, cord blood, AML and CML CD34+ cells were cultured with CpG-scramble RNA (500 nM) and CpG-anti-miR126 inhibitor-Cy3 (500 nM) for 24 hours, and then miR126 and RNU44 (ctrl) expression in these cells were analyzed by Q-RT-PCR (FIG. 5). The miR126 expression levels were normalized to RNU44 and calculated by using the comparative 2^−ΔΔCt method.

[1] = tested on: Normal, cord blood, AML and CML CD34+ cells; assay: Uptake of CpG-anti-miR126 inhibitor-Cy3 in primary CD34+ cells, Cy3 by flow cytometry; format: cell-based, human; details: 500 nM; primary patients' AML and CML CD34+ cells
Protocol: FIGS. 2A-2D are flow cytometry histograms showing results of uptake tests in normal, cord blood, acute myeloid leukemia (AML), and chronic myeloid leukemia (CML) CD34+ cells. Normal (NL), cord blood (CB), AML and CML34+ cells were cultured with CpG-scramble RNA (500 nM) and CpG-miR126 inhibitor-Cy3 (500 nm) for 16 hours. FIG. 2A is a histogram showing uptake in NL/CB cells with 600 CpG siRNA. FIG. 2B is a histogram showing NL/CB cells with 500 CpG-siRNA. FIG. 2C is a histogram showing uptake in AML cells. FIG. 2D is a histogram showing uptake in CML cells. Uptake was measured by Cy3 expression in these cells by flow cytometry.
Normal, cord blood, AML and CML CD34+ cells were cultured with CpG-anti-miR126 inhibitor-Cy3 or anti-miR126 inhibitor-Cy3 for 16 hours, and the uptake was measured by Cy3 expression in the cells by flow cytometry (FIGS. 2A-2D). All tested cells internalized CpG-anti-miR126-Cy3 but not the anti-miR126-Cy3 with high efficiency.
as §1

human AML CD34+ cells = assay: Cell cycling, apoptosis and cell growth of AML CD34+ cells with Ara-c and Doxo; format: cell-based; details: 500 nM combined with Ara-c and Doxo
Protocol: AML CD34+ cells were cultured with CpG-anti-miR-126 or CpG-SCR (500 nM) for 48 hours, then furthered cultured with miR126 inh+Ara-c+Doxo or SCR+A+D for 72 hours, then cell cycling, apoptosis (FIG. 12B) and cell growth (FIG. 12C) were analyzed.

[2] = tested on: CML (K562) and AML cell lines (KG1A, MV4-11, Molm13, NB4, OCI and HL60); assay: Uptake in AML and CML cell lines, Cy3 by flow cytometry; format: cell-based, human; details: 4 hours
Protocol: FIGS. 3A-3G are flow cytometry histograms showing results of CpG-anti-miR-126 uptake in AML and CML cell lines. Cells were cultured with miR126-inhibitor-Cy3 (Cy3-200 nM0, human CD45 (Ab-200 nM) or Transferrin (TF-200 nM)-conjugated nanoparticles (NP) containing antagomiR-126-Cy3, CpG-miR126 inhibitor-Cy3 (CpG-Cy3-200 nM and 500 nM) for 4 hours, then uptake was analyzed by measuring Cy3 expression in these cells by flow cytometry. FIG. 3A is a histogram showing uptake in K562 cells. FIG. 3B is a histogram showing uptake in KG1A AML cells. FIG. 3C is a histogram showing uptake in MV4-11 AML cells. FIG. 3D is a histogram showing uptake in Molm13 AML cells. FIG. 3E is a histogram showing uptake in NB4 AML cells. FIG. 3F is a histogram showing uptake in OCI AML cells. FIG. 3G is a histogram showing uptake in HL60 AML cells.
CML (K562) (FIG. 3A) and AML cell lines (KG1A, MV4-11, Molm13, NB4, OCI and HL60) (FIGS. 3B-3G) were cultured with anti-miR126 inhibitor-Cy3 (Cy3-200 nM) alone, human CD45 (Ab-200 nM) or Transferrin (TF-200 nM)-conjugated nanoparticles (NP) containing anti-miR126-Cy3 or unformulated CpG-anti-miR126 inhibitor—Cy3 in two concentrations (200 nM and 500 nM) for 4 hours, the uptake was analyzed by measuring Cy3 expression in these cells by flow cytometry.

[3] = tested on: CML CD34+, CD34+CD38+ committed and CD34+CD38− primitive progenitors; assay: Apoptosis of CML progenitors by Annexin V/DAPI staining; format: cell-based, human; details: 500 nM combined with NIL 5 uM, 72 hours, compared with CpG-scramble and NIL
Protocol: CML CD34+, CD34+CD38+ committed and CD34+CD38− primitive progenitors were cultured with CpG-scramble RNA (500 nM), CpG-miR126 inhibitor (500 nM), CpG-scramble RNA (500 nM)+Nilotinib (5 μM), and CpG-miR126 inhibitor (500 nM)+NIL (5 μM) for 72 hours and then apoptosis was analyzed by Annexin V/DAPI staining.
CML CD34+, CD34+CD38+ committed and CD34+CD38− primitive progenitors were cultured with CpG-scramble RNA (500 nM), CpG-anti-miR126 inhibitor (500 nM), CpG-scramble RNA (500 nM)+Nilotinib (NIL, 5 uM), and CpG-anti-miR126 inhibitor (500 nM)+NIL (5 uM) for 72 hours and then cell cycling and apoptosis were analyzed by EDU/DAPi and Annexin V/DAPi staining.

[4] = compared with Ara-c and Doxo alone

For “5′ G*G*T GCA TCG ATG CAGG*G*G* G*G (SEQ ID NO: 1) xxxxx mCmGmC mAmUmU mAmUmU mAmCmU mCmAmC mGmGmU mAmCmG mA (SEQ ID NO: 17) 3′ [CpG-anti-miR126]”, the “reduction of miR126 expression” value (miR126) was 60%-90%, the “internalization by primary cells” value [1] was “quickly internalized” and the cell growth (human AML CD34+ cells) was “reduction of cell growth”. The apoptosis (human AML CD34+ cells; [4]) was “significantly increased”, the cell cycling (human AML CD34+ cells; [4]) was “significantly increased” and the “internalization (Cy3 uptake)” value ([2]; 200 nM and 500 nM, no transfection reagents) was “quickly and dose-dependently internalized”. The “level of internalization compared with other oligonucleotides including NP-formulated anti-miR126 inhibitor” value ([2]; absence of any transfection reagents) was “exceeded that of all other oligonucleotides” and the apoptosis [3] was “Increased apoptosis”.

— US11591596B2, “Compounds and compositions including phosphorothioated oligodeoxynucleotide, and methods of use thereof” (City of Hope, priority 2015, dated 2023)
